Results as given in US4731109A, “Herbicidal 2-haloacetanilides” (Monsanto Company, priority 1982, dated 1988).
Like-named read-outs stand apart in the source and are kept apart here.

Experiments:
Assay type in all cases: in vivo
[1] = test system: common purslane; assay: Greenhouse pre-emergence GR15/GR85 selectivity test; conditions: Table XV
Summary of the method: (§1)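 Pre-emergence soil-incorporation test: seeded pans were covered with topsoil mixed with active ingredient (in solvent or as wettable powder), overhead-irrigated (0.64 cm) or not, then subirrigated. Plants were scored about 2-3 weeks after treatment. GR15/GR85 rates are in kg/ha, and selectivity factor is crop GR15 divided by weed GR85.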

[2] = test system: common ragweed; assay: as above; conditions: Table XV
Summary of the method: as §1

[3] = test system: prickly sida; assay: as above; conditions: Table XV
Summary of the method: as §1

[4] = test system: redroot pigweed; assay: as above; conditions: Table XV; for selectivity factor (GR15/GR85): in rape
Summary of the method: as §1

[5] = test system: purple nutsedge; assay: as above; conditions: Table XV; for selectivity factor (GR15/GR85): in rape
Text: (§2) A good grade of top soil is placed in aluminum pans and compacted to a depth of three-eighths to one-half inch from the top of the pan. On the top of the soil is placed a number of seeds or vegetative propagules of various plant species. The soil required to level fill the pans after seeding or adding vegetative propagules is weighed into a pan. The soil and a known amount of the active ingredient applied in a solvent or as a wettable powder suspension are thoroughly mixed, and used to cover the prepared pans. After treatment, the pans are given an initial overhead irrigation of eater, equivalent to one-fourth inch (0.64 cm) rainfall, then watered by subirrigation as need to give adequate moisture for germination and growth. As an alternative procedure, the overhead irrigation may be omitted. Observations are made about 2-3 weeks after seeding and treatment.
(§3) In the discussion and tables of data below, reference is made to herbicide application rates symbolized as "GR15 " and "GR85 "; these rates are given in kilograms per hectare (kg/ha) which are convertible into pounds per acre (lbs/A) by dividing the kg/ha rate by 1.12.
(§4) A further guide to the effectiveness of a chemical as a selective herbicide is the "selectivity factor" ("SF") for a herbicide in given crops and weeds. The selectivity factor is a measure of the relative degree of crop safety and weed injury and is expressed in terms of the GR15 /GR85 ratio, i.e., the GR15 rate for the crop divided by the GR85 rate for the weed, both rates in kg/ha (lb/A). In the tables below, selectivity factors are shown in parenthesis following the GR85 rate for each weed; the symbol "NS" indicates "non-selective". Marginal or undetermined selectivity is indicated by a dash (--).
(§5) Additionally, pre-emergence herbicidal data from other tests have established that compounds according to this invention also selectively suppress quackgrass, yellow nutsedge and/or other weeds in one or more of the crops cotton, peanuts, bush beans and/or rape. For example, in Table VI are presented data showing the herbicidal selectivity of the compounds of Examples 1 and 2 against quackgrass in rape and snap beans. Unless otherwise noted; greenhouse tests in Table VI and in other tables below involved herbicide treatments by soil incorporation and an initial overhead irrigation followed by subirrigation as described above.
In other greenhouse tests, compounds according to this invention have shown selective control of a variety of annual and perennial weeds in various crops. As further illustrative, the compound of Example 1 selectively controlled purple nutsedge in both corn nd soybeans, the respective crop/weed GR15 /GR85 ratios (expressed in kg/ha) being 0.67/0.25 (S.F.=2.7) in corn and 1.1/0.25 (S.F.=4.5) in soybeans. The compound of Example 8 has shown selective control of yellow nutsedge and quackgrass in corn and soybeans. The respective crop/yellownutsedge GR15 /GR85 ratios being >2.2/0.95 (S.F.=2.5) in corn; 2.2/0.5 (SF=4.5) in soybeans and the respective GR15 /GR85 ratios for both corn and soybeans in quackgrass being >2.2/0.5 (S.F.=4.5). In a test against yellow nutsedge in cotton, the GR15 /GR85 ratio (average of two replicates) was 2.0/0.95 (S.F.=2).
In another greenhouse test, the compounds of Examples 3-5, 9 and 10 were tested for their herbicidal efficacy against a variety of resistant annual and perennial weeds in rape.

[6] = test system: lima beans; assay: as above; conditions: Table XVI
Text: as §2, §3, §4, §5
(§6) Additional greenhouse tests were made to test certain compounds of this invention against a plurality of problem weeds in peanuts and lima beans; except for fall panicum, the test weeds are particularly resistant weeds; the test data is set forth in Table XVI.
(§7) In Table XVI, the selectivity factors for the test compounds for each weed in lima beans is shown as the first or upper value in parenthesis and the selectivity factors for each weed in peanuts is shown as the second or lower value in parenthesis for each compound. For example, the selectivity factor for the compound of Example 3 for seedling johnsongrass in lima beans is 2.1 and in peanuts, >4.9; the selectivity factor for Texas panicum in lima beans is 1.1 and in peanuts, >2.6, etc.

[7] = test system: peanuts; assay: as above; conditions: Table XVI
Text: as §2, §3, §4, §5, §6, §7

[8] = test system: Barnyardgrass; assay: Resistance to leaching and resulting herbicidal efficacy; conditions: for inhibition at 140 g/ha / inhibition at 560 g/ha / inhibition at 2200 g/ha: Echinochloa crus-galli, read-out: Percent Inhibition
Procedure: Laboratory tests were conducted to determine the resistance of herbicides according to this invention to leaching into the soil and resulting herbicidal efficacy. […] The pots containing the treated soil were subjected to leaching by placing on a turntable which rotated under two nozzle tips of a water container calibrated to deliver one inch (2.5 cm) of water per hour simulating rainfall. Leaching rates were adjusted by varying the amount of time on the turntable. Water was delivered to the soil in the pots and allowed to percolate through the filter paper and drainage holes. The pots were then allowed to sit for three days at ambient room temperature. The treated soil in the pots was then removed, crumbled and placed as a surface layer on top of other pots containing the above soils seeded with barnyardgrass seeds. The pots were then placed on greenhouse benches, sub-irrigated and allowed to grow for 2-3 weeks. Visual ratings of percent growth inhibition compared to control (untreated) pots and fresh weights for barnyardgrass were recorded; the data from the control represents six replications and that for the test compounds three replications; test data are shown in Table XVIII.

[9] = Drummer silt clay, 0.14 Kg/Ha, rain 0 cm
[10] = Drummer silt clay, 0.14 Kg/Ha, rain 1.27 cm
[11] = Drummer silt clay, 0.14 Kg/Ha, rain 5.08 cm
[12] = Drummer silt clay, 0.56 Kg/Ha, rain 0 cm
[13] = Drummer silt clay, 0.56 Kg/Ha, rain 1.27 cm
[14] = Drummer silt clay, 0.56 Kg/Ha, rain 5.08 cm
[15] = Drummer silt clay, 0.56 Kg/Ha, rain 10.16 cm
[16] = Drummer silt clay, 2.2 Kg/Ha, rain 0 cm
[17] = Drummer silt clay, 2.2 Kg/Ha, rain 1.27 cm
[18] = Drummer silt clay, 2.2 Kg/Ha, rain 5.08 cm
[19] = Drummer silt clay, 2.2 Kg/Ha, rain 10.16 cm
[20] = Ray silt loam, 0.14 Kg/Ha, rain 0 cm
[21] = Ray silt loam, 0.14 Kg/Ha, rain 1.27 cm
[22] = Ray silt loam, 0.14 Kg/Ha, rain 5.08 cm
[23] = Ray silt loam, 0.14 Kg/Ha, rain 10.61 cm
[24] = Ray silt loam, 0.56 Kg/Ha, rain 0 cm
[25] = Ray silt loam, 0.56 Kg/Ha, rain 1.27 cm
[26] = Ray silt loam, 0.56 Kg/Ha, rain 5.08 cm
[27] = Ray silt loam, 0.56 Kg/Ha, rain 10.16 cm
[28] = Ray silt loam, 2.2 Kg/Ha, rain 0 cm
[29] = Ray silt loam, 2.2 Kg/Ha, rain 1.27 cm
[30] = Ray silt loam, 2.2 Kg/Ha, rain 5.08 cm
[31] = Ray silt loam, 2.2 Kg/Ha, rain 10.16 cm

Q: Which “GR85 Rate” value [1] does the source give for `Cc1cccc(C(F)(F)F)c1N(COC(C)C)C(=O)CCl` [Example 4, N--(isopropoxymethyl)-2'-trifluoromethyl-6'-methyl-2-chloroacetanilide] here?
A: > 1.12 Kg/Ha

Q: And the “GR85 Rate” value [2]?
A: 1.03 Kg/Ha

Q: And the “selectivity factor (GR15/GR85)” value ([2]; in rape)?
A: > 1.1

Q: What about the “GR85 Rate” value [3] of the same molecule?
A: > 1.12 Kg/Ha

Q: What about the “GR85 Rate” value [4] of the same molecule?
A: 0.50 Kg/Ha

Q: And the “selectivity factor (GR15/GR85)” value [4]?
A: > 2.2

Q: What about the “GR85 Rate” value [5] of the same molecule?
A: 0.25 Kg/Ha

Q: And the “selectivity factor (GR15/GR85)” value [5]?
A: > 4.5

Q: And the “GR15 Rate” value [6]?
A: > 1.12 Kg/Ha

Q: And the “GR15 Rate” value [7]?
A: 0.98 Kg/Ha

Q: What about the inhibition at 140 g/ha [8, 9] of the same molecule?
A: 70%

Q: And the inhibition at 140 g/ha [8, 10]?
A: 96%

Q: And the inhibition at 140 g/ha [8, 11]?
A: 85%

Q: What about the inhibition at 560 g/ha [8, 12] of the same molecule?
A: 100%

Q: What about the inhibition at 560 g/ha [8, 13] of the same molecule?
A: 100%

Q: What about the inhibition at 560 g/ha [8, 14] of the same molecule?
A: 100%

Q: And the inhibition at 560 g/ha [8, 15]?
A: 96%

Q: What about the inhibition at 2200 g/ha [8, 16] of the same molecule?
A: 100%

Q: What about the inhibition at 2200 g/ha [8, 17] of the same molecule?
A: 100%

Q: And the inhibition at 2200 g/ha [8, 18]?
A: 100%

Q: What about the inhibition at 2200 g/ha [8, 19] of the same molecule?
A: 100%

Q: What about the inhibition at 140 g/ha [8, 20] of the same molecule?
A: 98%

Q: And the inhibition at 140 g/ha [8, 21]?
A: 90%

Q: And the inhibition at 140 g/ha [8, 22]?
A: 38%

Q: And the inhibition at 140 g/ha [8, 23]?
A: 12%

Q: What about the inhibition at 560 g/ha [8, 24] of the same molecule?
A: 99%

Q: What about the inhibition at 560 g/ha [8, 25] of the same molecule?
A: 100%

Q: And the inhibition at 560 g/ha [8, 26]?
A: 89%

Q: What about the inhibition at 560 g/ha [8, 27] of the same molecule?
A: 17%

Q: What about the inhibition at 2200 g/ha [8, 28] of the same molecule?
A: 100%

Q: And the inhibition at 2200 g/ha [8, 29]?
A: 100%

Q: And the inhibition at 2200 g/ha [8, 30]?
A: 92%

Q: What about the inhibition at 2200 g/ha [8, 31] of the same molecule?
A: 71%

Q: What about the inhibition at 140 g/ha ([8]; Drummer silt clay, 0.14 Kg/Ha, rain 10.61 cm) of the same molecule?
A: 47%

Q: What about the “Fresh Weight” value [8, 20] of the same molecule?
A: 0.01 Grams

Q: What about the “Fresh Weight” value [8, 21] of the same molecule?
A: 0.41 Grams

Q: What about the “Fresh Weight” value [8, 22] of the same molecule?
A: 2.77 Grams

Q: And the “Fresh Weight” value [8, 23]?
A: 3.62 Grams

Q: What about the “Fresh Weight” value [8, 24] of the same molecule?
A: 0.02 Grams

Q: What about the “Fresh Weight” value [8, 25] of the same molecule?
A: 0 Grams

Q: What about the “Fresh Weight” value [8, 26] of the same molecule?
A: 0.44 Grams

Q: What about the “Fresh Weight” value [8, 27] of the same molecule?
A: 3.41 Grams

Q: What about the “Fresh Weight” value [8, 28] of the same molecule?
A: 0 Grams

Q: What about the “Fresh Weight” value [8, 29] of the same molecule?
A: 0 Grams

Q: What about the “Fresh Weight” value [8, 30] of the same molecule?
A: 0.31 Grams

Q: And the “Fresh Weight” value [8, 31]?
A: 1.18 Grams

Q: For `CCCOCN(C(=O)CCl)c1c(CC)cccc1C(F)(F)F` [Example 10, N--(n-propoxymethyl)-2'-trifluoromethyl-6'-ethyl-2-chloroacetanilide], which “GR85 Rate” value [1] is on record?
A: > 1.12 Kg/Ha

Q: What about the “GR85 Rate” value [2] of the same molecule?
A: > 1.12 Kg/Ha

Q: And the “GR85 Rate” value [3]?
A: > 1.12 Kg/Ha

Q: And the “GR85 Rate” value [4]?
A: 0.70 Kg/Ha

Q: What about the “selectivity factor (GR15/GR85)” value [4] of the same molecule?
A: > 1.6

Q: And the “GR85 Rate” value [5]?
A: 0.18 Kg/Ha

Q: And the “selectivity factor (GR15/GR85)” value [5]?
A: > 6.2

Q: And the “GR15 Rate” value [6]?
A: > 1.12 Kg/Ha

Q: What about the “GR15 Rate” value [7] of the same molecule?
A: 0.98 Kg/Ha

Q: And the inhibition at 140 g/ha [8, 9]?
A: 90%

Q: What about the inhibition at 140 g/ha [8, 10] of the same molecule?
A: 85%

Q: What about the inhibition at 140 g/ha [8, 11] of the same molecule?
A: 80%

Q: What about the inhibition at 140 g/ha ([8]; Drummer silt clay, 0.14 Kg/Ha, rain 10.16 cm) of the same molecule?
A: 70%

Q: And the inhibition at 560 g/ha [8, 12]?
A: 99%

Q: And the inhibition at 560 g/ha [8, 13]?
A: 98%

Q: And the inhibition at 560 g/ha [8, 14]?
A: 98%

Q: What about the inhibition at 560 g/ha [8, 15] of the same molecule?
A: 98%

Q: And the inhibition at 2200 g/ha [8, 16]?
A: 100%

Q: What about the inhibition at 2200 g/ha [8, 17] of the same molecule?
A: 100%

Q: And the inhibition at 2200 g/ha [8, 18]?
A: 99%

Q: And the inhibition at 2200 g/ha [8, 19]?
A: 98%

Q: What about the inhibition at 140 g/ha [8, 20] of the same molecule?
A: 100%

Q: And the inhibition at 140 g/ha [8, 21]?
A: 100%

Q: What about the inhibition at 140 g/ha [8, 22] of the same molecule?
A: 98%

Q: And the inhibition at 560 g/ha [8, 24]?
A: 100%

Q: And the inhibition at 560 g/ha [8, 25]?
A: 100%

Q: What about the inhibition at 560 g/ha [8, 26] of the same molecule?
A: 100%

Q: And the inhibition at 560 g/ha [8, 27]?
A: 90%

Q: And the inhibition at 2200 g/ha [8, 29]?
A: 100%

Q: What about the inhibition at 2200 g/ha [8, 30] of the same molecule?
A: 100%

Q: And the inhibition at 2200 g/ha [8, 31]?
A: 98%

Q: What about the inhibition at 140 g/ha ([8]; Ray silt loam, 0.14 Kg/Ha, rain 10.16 cm) of the same molecule?
A: 65%
